Patent publication US10219516B2, “Molecules having pesticidal utility, and intermediates, compositions, and processes, related thereto” (priority 2015, dated 2019)
Where two headings read alike, the source gives them in different places.

What was measured:
[1] = system: Beet Armyworm (Spodoptera exigua, LAPHEG); test: Bioassay on Beet Armyworm (BAW), 128-well diet tray assay; assay type: in vivo
Outline: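 Test molecule dissolved in acetone-water 90:10 is applied at 50 μg/cm^2 onto artificial diet and allowed to dry. Second instar larvae, one to five per well, are then added, and trays are vented and kept at 25° C. for five to seven days before mortality is scored.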

[2] = system: Cabbage Looper (Trichoplusia ni, TRIPNI); test: Bioassay on Cabbage Looper (CL), 128-well diet tray assay; assay type: in vivo; conditions: Trichoplusia ni
Outline: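 Test molecule is dissolved in 90:10 acetone-water and applied at 50 μg/cm^2 onto artificial diet, then dried. One to five second-instar larvae go into each of eight wells. Trays, sealed but vented, stay at 25° C., 14:10 light-dark, five to seven days, after which mortality is averaged.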

[3] = Beet Armyworm, 128-well diet tray assay, read-out: BAW rating
[4] = Cabbage Looper, 128-well diet tray assay, read-out: CL rating
[5] = Species BAW (Beet Armyworm), read-out: BAW (Biological Results, rating)
[6] = Species CL (Cabbage Looper), read-out: CL (Biological Results, rating)

| SMILES | pest or weed control at 50 µg/cm2 [1, 3] [%] | pest or weed control at 50 µg/cm2 [2, 4] [%] | pest or weed control at 50 µg/cm2 [1, 5] [%] | pest or weed control at 50 µg/cm2 [2, 6] [%] |
| --- | --- | --- | --- | --- |
| O=C(Cc1ccccc1)Nc1ccc(NC(=O)c2cc(NC(=O)[C@H]3[C@H](c4cc(Cl)cc(Cl)c4)C3(Cl)Cl)ccc2Cl)cc1 (relative stereo) [PF28, trans-2-Chloro-5-(2,2-dichloro-3-(3,5-dichlorophenyl)cyclopropane-1-carboxamido)-N-(4-(2-phenylacetamido)phenyl)benzamide] | 50 to 100 | 50 to 100 | – | – |
| CC(C)(C)OC(=O)n1ccc2cc(NC(=O)c3cc(NC(=O)[C@H]4[C@H](c5cc(Cl)cc(Cl)c5)C4(Cl)Cl)ccc3Cl)ccc21 (relative stereo) [F484, tert-Butyl 5-(2-chloro-5-(trans)-(2,2-dichloro-3-(3,5-dichlorophenyl)cyclopropane-1-carboxamido)benzamido)-1H-indole-1-carboxylate] | 50 to 100 | 50 to 100 | – | – |
| CN(C(=O)c1cc(NC(=O)[C@H]2[C@H](c3cc(Cl)cc(Cl)c3)C2(Cl)Cl)ccc1Cl)c1ccc(C#N)cc1F (relative stereo) [F106, trans-2-Chloro-N-(4-cyano-2-fluorophenyl)-5-(2,2-dichloro-3-(3,5-dichlorophenyl)cyclopropane-1-carboxamido)-N-methylbenzamide] | – | – | 50 to 100 | 50 to 100 |
| Cc1ccc(-c2csc(NC(=O)c3cc(NC(=O)[C@H]4[C@H](c5cc(Cl)cc(Cl)c5)C4(Cl)Cl)ccc3Cl)n2)cc1 (relative stereo) [PF136, trans-2-Chloro-5-(2,2-dichloro-3-(3,5-dichlorophenyl)cyclopropane-1-carboxamido)-N-(4-(p-tolyl)thiazol-2-yl)benzamide] | 50 to 100 | 50 to 100 | – | – |
| O=C(Nc1ccc(F)cc1)c1cc(NC(=O)[C@H]2[C@H](c3ccc(Cl)c(F)c3)C2(Cl)Cl)ccc1Cl (relative stereo) [PF34, trans-2-Chloro-5-(2,2-dichloro-3-(4-chloro-3-fluorophenyl)cyclopropane-1-carboxamido)-N-(4-fluorophenyl)benzamide] | 50 to 100 | 50 to 100 | – | – |
| N#Cc1ccc(NC(=O)c2cc(NC(=O)[C@H]3[C@H](c4ccc(Cl)c(Cl)c4)C3(Cl)Cl)ccc2Cl)c(F)c1 (relative stereo) [F103, trans-2-chloro-N-(4-cyano-2-fluorophenyl)-5-(2,2-dichloro-3-(3,4-dichlorophenyl)cyclopropane-1-carboxamido)benzamide] | – | – | 50 to 100 | 50 to 100 |
| O=C(Nc1c(F)cccc1F)c1cc(NC(=O)[C@H]2[C@H](c3cc(Cl)c(F)c(Cl)c3)C2(Cl)Cl)ccc1Cl (relative stereo) [F98, trans-2-Chloro-5-(2,2-dichloro-3-(3,5-dichloro-4-fluorophenyl)cyclopropane-1-carboxamido)-N-(2,6-difluorophenyl)benzamide] | – | – | 50 to 100 | 50 to 100 |
| O=C(Nc1ccccn1)c1cc(NC(=O)[C@H]2[C@H](c3cc(Cl)cc(Cl)c3)C2(Cl)Cl)ccc1Cl (relative stereo) [F78, trans-2-Chloro-5-(2,2-dichloro-3-(3,5-dichlorophenyl)cyclopropane-1-carboxamido)-N-(pyridin-2-yl)benzamide] | – | – | 50 to 100 | 50 to 100 |
| C[S+]([O-])c1ccc(NC(=O)c2cc(NC(=O)[C@H]3[C@H](c4cc(Cl)cc(Cl)c4)C3(Cl)Cl)ccc2Cl)cc1 (relative stereo) [F159, trans-2-Chloro-5-(2,2-dichloro-3-(3,5-dichlorophenyl)cyclopropane-1-carboxamido)-N-(4-(methylsulfinyl)phenyl)benzamide] | – | – | 50 to 100 | 50 to 100 |
| O=C(Nc1ccc(F)cc1)c1cc(NC(=O)[C@H]2[C@H](c3cc(Cl)cc(Cl)c3)C2(Cl)Cl)c(F)cc1Cl (relative stereo) [F48, trans-2-Chloro-5-(2,2-dichloro-3-(3,5-dichlorophenyl)cyclopropane-1-carboxamido)-4-fluoro-N-(4-fluorophenyl)benzamide] | – | – | 50 to 100 | 50 to 100 |
| O=C(Nc1cc(F)cc([N+](=O)[O-])c1)c1cc(NC(=O)[C@H]2[C@H](c3ccc(Cl)c(Cl)c3)C2(Cl)Cl)ccc1Cl [F416, 2-Chloro-5-((1R,3R)-2,2-dichloro-3-(3,4-dichlorophenyl)cyclopropane-1-carboxamido)-N-(3-fluoro-5-nitrophenyl)benzamide] | 50 to 100 | 50 to 100 | – | – |
| CSc1ccc(NC(=O)c2cc(NC(=O)[C@H]3[C@H](c4cc(Cl)cc(Cl)c4)C3(Cl)Cl)ccc2Cl)cc1 (relative stereo) [F149, trans-2-Chloro-5-(2,2-dichloro-3-(3,5-dichlorophenyl)cyclopropane-1-carboxamido)-N-(4-(methylthio)phenyl)benzamide] | – | – | 50 to 100 | 50 to 100 |
| Cc1cc([C@H]2[C@H](C(=O)Nc3ccc(Cl)c(C(=O)Nc4c(F)cccc4F)c3)C2(Cl)Cl)cc(Cl)c1Cl (relative stereo) [F125, trans-2-Chloro-5-(2,2-dichloro-3-(3,4-dichloro-5-methylphenyl)cyclopropane-1-carboxamido)-N-(2,6-difluorophenyl)benzamide] | – | – | 50 to 100 | 50 to 100 |
| O=C(Nc1ccc(F)cc1)c1cc(NC(=O)[C@H]2[C@H](c3cc(Cl)c(Br)c(Cl)c3)C2(Cl)Cl)ccc1Cl (relative stereo) [F72, trans-5-(3-(4-Bromo-3,5-dichlorophenyl)-2,2-dichlorocyclopropane-1-carboxamido)-2-chloro-N-(4-fluorophenyl)benzamide] | – | – | 50 to 100 | 50 to 100 |
| O=C(Nc1ccc(F)cc1)c1cc(NC(=O)[C@H]2[C@H](c3cc(C(F)(F)F)cc(C(F)(F)F)c3)C2(Cl)Cl)ccc1Cl (relative stereo) [F84, trans-5-(3-(3,5-Bis(trifluoromethyl)phenyl)-2,2-dichlorocyclopropane-1-carboxamido)-2-chloro-N-(4-fluorophenyl)benzamide] | – | – | 50 to 100 | 50 to 100 |
| CC(C)(C)CC(=O)Nc1ccc(NC(=O)c2cc(NC(=O)[C@H]3[C@H](c4cc(Cl)cc(Cl)c4)C3(Cl)Cl)ccc2Cl)cc1 (relative stereo) [PF164, trans-2-Chloro-5-(2,2-dichloro-3-(3,5-dichlorophenyl)cyclopropane-1-carboxamido)-N-(4-(3,3-dimethylbutanamido)phenyl)benzamide] | 50 to 100 | 50 to 100 | – | – |
| O=C(Nc1ccc(F)cc1)c1cc(NC(=O)C2C(c3cc(Cl)cc(Cl)c3)C2(Cl)Br)ccc1Cl (stereo not drawn) [PF33, 5-(trans)-2-Bromo-2-chloro-3-(3,5-dichlorophenyl)cyclopropane-1-carboxamido)-2-chloro-N-(4-fluorophenyl)benzamide] | 50 to 100 | 50 to 100 | – | – |
| N#Cc1ccc(NC(=O)c2cc(NC(=O)[C@H]3[C@H](c4cc(Cl)cc(Cl)c4)C3(Cl)Cl)ccc2Cl)c(F)c1 (relative stereo) [F144, trans-2-Chloro-N-(4-cyano-2-fluorophenyl)-5-(2,2-dichloro-3-(3,5-dichlorophenyl)cyclopropane-1-carboxamido)benzamide] | – | – | 50 to 100 | 50 to 100 |
| O=C(Nc1ccc(F)cc1)c1cc(NC(=O)C2C(c3cc(Cl)cc(Cl)c3)C2(Cl)Cl)ccc1Cl (stereo not drawn) [F629, 2-Chloro-5-(2,2-dichloro-3-cis-(3,5-dichlorophenyl)cyclopropane-1-carboxamido)-N-(4-fluorophenyl)benzamide] | 50 to 100 | 50 to 100 | – | – |
| CS(=O)(=O)c1ccc(NC(=O)c2cc(NC(=O)[C@H]3[C@H](c4cc(Cl)cc(Cl)c4)C3(Cl)Cl)ccc2Cl)cc1 (relative stereo) [F143, trans-2-Chloro-5-(2,2-dichloro-3-(3,5-dichlorophenyl)cyclopropane-1-carboxamido)-N-(4-(methylsulfonyl)phenyl)benzamide] | – | – | 50 to 100 | 50 to 100 |
| CC(=O)Nc1ccc(NC(=O)c2cc(NC(=O)[C@H]3[C@H](c4cc(Cl)cc(Cl)c4)C3(Cl)Cl)c(Cl)cc2Cl)cc1 (relative stereo) [F255, trans-N-(4-Acetamidophenyl)-2,4-dichloro-5-(2,2-dichloro-3-(3,5-dichlorophenyl)cyclopropane-1-carboxamido)benzamide] | – | – | 50 to 100 | 0 to 50 |
| O=C(Nc1ccc(F)cc1)c1cc(NC(=O)[C@H]2[C@H](c3cc(Cl)c(Cl)cc3Cl)C2(Cl)Cl)ccc1Cl (relative stereo) [F73, trans-2-Chloro-5-(2,2-dichloro-3-(2,4,5-trichlorophenyl)cyclopropane-1-carboxamido)-N-(4-fluorophenyl)benzamide] | – | – | 50 to 100 | 50 to 100 |
| O=C(Nc1cc(C(F)(F)F)[nH]n1)c1cc(NC(=O)[C@H]2[C@H](c3cc(Cl)cc(Cl)c3)C2(Cl)Cl)ccc1Cl (relative stereo) [PF138, trans-2-Chloro-5-(2,2-dichloro-3-(3,5-dichlorophenyl)cyclopropane-1-carboxamido)-N-(5-(trifluoromethyl)-1H-pyrazol-3-yl)benzamide] | 50 to 100 | 50 to 100 | – | – |
